≈ marks a conversion by molar mass, not a printed value.
System: M. catarrhalis A894
Experiment: Minimal inhibitory concentration (MIC), microdilution method in cation-adjusted Mueller-Hinton Broth (CLSI M7-A7)
Format: cell-based
Conditions: strain A894; for MIC: Moraxella catarrhalis
Description: Minimal inhibitory concentrations (MICs; mg/1) were determined in cation-adjusted Mueller-Hinton Broth by a microdilution method following the description given in “Methods for Dilution Antimicrobial Susceptibility Tests for Bacteria that Grow Aerobically”, Approved standard, 7th ed., Clinical and Laboratory Standards Institute (CLSI) Document M7-A7, Wayne, Pa., USA, 2006.

## O=C1CSc2ccc(N3C[C@H](CNCC4Cn5c(=O)ccc6ccc(F)c4c65)OC3=O)cc2N1 (mixture of isomers) [Example 30, (1RS)-9-fluoro-1-({[(S)-2-oxo-3-(3-oxo-3,4-dihydro-2H-benzo[1,4]thiazin-6-yl)-oxazolidin-5-ylmethyl]-amino}-methyl)-1,2-dihydro-pyrrolo[3,2,1-ij]quinolin-4-one]
  MIC: 0.031 µg/mL

## O=C1CSc2ccc(N3C[C@H](CCCNC4Cn5c(=O)ccc6ccc(F)c4c65)OC3=O)nc2N1 (mixture of isomers) [Example 126, (RS)-9-fluoro-1-{3-[(S)-2-oxo-3-(3-oxo-3,4-dihydro-2H-pyrido[3,2-b][1,4]thiazin-6-yl)-oxazolidin-5-yl]-propylamino}-1,2-dihydro-pyrrolo[3,2,1-ij]quinolin-4-one]
  MIC: ≤ 0.031 µg/mL

## O=C1CSc2ccc(N3C[C@H](CNCC4Cn5c(=O)ccc6cccc4c65)OC3=O)cc2N1 (mixture of isomers) [Example 81, (RS)-1-({[(S)-2-oxo-3-(3-oxo-3,4-dihydro-2H-benzo[1,4]thiazin-6-yl)-oxazolidin-5-ylmethyl]-amino}-methyl)-1,2-dihydro-pyrrolo[3,2,1-ij]quinolin-4-one]
  MIC: ≤ 0.031 µg/mL

## O=C1COc2ccc(N3C[C@H](CCCN[C@@H]4Cn5c(=O)cnc6ccc(F)c4c65)OC3=O)cc2N1 [Example 80, (S)-7-fluoro-6-{3-[(S)-2-oxo-3-(3-oxo-3,4-dihydro-2H-benzo[1,4]oxazin-6-yl)-oxazolidin-5-yl]-propylamino}-5,6-dihydro-pyrrolo[1,2,3-de]quinoxalin-3-one]
  MIC: ≤ 0.031 µg/mL

## O=C1CSc2ccc(N3C[C@@H](CCCN[C@H]4Cn5c(=O)ccc6cccc4c65)OC3=O)cc2N1 [Example 109, (R)-1-{3-[(R)-2-oxo-3-(3-oxo-3,4-dihydro-2H-benzo[1,4]thiazin-6-yl)-oxazolidin-5-yl]-propylamino}-1,2-dihydro-pyrrolo[3,2,1-ij]quinolin-4-one]
  MIC: ≤ 0.031 µg/mL

## Cc1ccc(N2C[C@@H](CNCC3Cn4c(=O)ccc5ccc(F)c3c54)OC2=O)cc1F (mixture of isomers) [Example 33, (1RS)-9-fluoro-1-({[(R)-3-(3-fluoro-4-methyl-phenyl)-2-oxo-oxazolidin-5-ylmethyl]-amino}-methyl)-1,2-dihydro-pyrrolo[3,2,1-ij]quinolin-4-one]
  MIC: 16 µg/mL

## O=C1CSc2ccc(N3C[C@@H](CN(CCCO)CCC4Cn5c(=O)ccc6ccc(F)c4c65)OC3=O)cc2N1 (mixture of isomers) [Example 68, (RS)-9-fluoro-1-(2-{(3-hydroxy-propyl)-[(R)-2-oxo-3-(3-oxo-3,4-dihydro-2H-benzo[1,4]thiazin-6-yl)-oxazolidin-5-ylmethyl]-amino}-ethyl)-1,2-dihydro-pyrrolo[3,2,1-ij]quinolin-4-one]
  MIC: ≤ 0.031 µg/mL

## O=C1CSc2ccc(N3C[C@@H](CCCCN[C@H]4Cn5c(=O)ccc6ccc(F)c4c65)OC3=O)cc2N1 (racemic) [Example 159, (RS)-9-fluoro-1-{4-[(RS)-2-oxo-3-(3-oxo-3,4-dihydro-2H-benzo[1,4]thiazin-6-yl)-oxazolidin-5-yl]-butylamino}-1,2-dihydro-pyrrolo[3,2,1-ij]quinolin-4-one]
  MIC: ≤ 0.031 µg/mL

## O=C1CSc2ccc(N3C[C@H](CCCN[C@@H]4Cn5c(=O)cnc6ccc(F)c4c65)OC3=O)cc2N1 [Example 79, (S)-7-fluoro-6-{3-[(S)-2-oxo-3-(3-oxo-3,4-dihydro-2H-benzo[1,4]thiazin-6-yl)-oxazolidin-5-yl]-propylamino}-5,6-dihydro-pyrrolo[1,2,3-de]quinoxalin-3-one]
  MIC: ≤ 0.031 µg/mL

## O=C1COc2ccc(N3C[C@@H](CCCN[C@H]4Cn5c(=O)ccc6nccc4c65)OC3=O)cc2N1 [Example 19, (4R)-4-{3-[(R)-2-oxo-3-(3-oxo-3,4-dihydro-2H-benzo[1,4]oxazin-6-yl)-oxazolidin-5-yl]-propylamino}-4,5-dihydro-pyrrolo[3,2,1-de][1,5]naphthyridin-7-one]
  MIC: ≤ 0.031 µg/mL

## O=C1CSc2ccc(N3C[C@H](CCN[C@@H]4Cn5c(=O)ccc6nccc4c65)OC3=O)cc2N1 [Example 41, (S)-4-{2-[(S)-2-oxo-3-(3-oxo-3,4-dihydro-2H-benzo[1,4]thiazin-6-yl)-oxazolidin-5-yl]-ethylamino}-4,5-dihydro-pyrrolo[3,2,1-de][1,5]naphthyridin-7-one]
  MIC: 0.5 µg/mL (≈ 1.08 µM)

## (1R,2S)-2-methyl-1-{3-[(S)-2-oxo-3-(3-oxo-3,4-dihydro-2H-pyrido[3,2-b][1,4]thiazin-6-yl)-oxazolidin-5-yl]-propylamino}-1,2-dihydro-pyrrolo[3,2,1-ij]quinolin-4-one and (1S,2R)-2-methyl-1-{3-[(S)-2-oxo-3-(3-oxo-3,4-dihydro-2H-pyrido[3,2-b][1,4]thiazin-6-yl)-oxazolidin-5-yl]-propylamino}-1,2-dihydro-pyrrolo[3,2,1-ij]quinolin-4-one [Example 169]
  MIC for M. catarrhalis A894: ≦0.031 mg/l

## O=C1CSc2ccc(N3C[C@@H](CCCNC4Cn5c(=O)cnc6ccc(F)c4c65)OC3=O)nc2N1 (mixture of isomers) [Example 199, (RS)-7-fluoro-6-{3-[(R)-2-oxo-3-(3-oxo-3,4-dihydro-2H-pyrido[3,2-b][1,4]thiazin-6-yl)-oxazolidin-5-yl]-propylamino}-5,6-dihydro-pyrrolo[1,2,3-de]quinoxalin-3-one]
  MIC: ≤ 0.031 µg/mL

## O=C1COc2ccc(N3C[C@@H](CCNC[C@@H]4Cn5c(=O)ccc6ccc(F)c4c65)OC3=O)nc2N1 (racemic) [Example 47, (RS)-9-fluoro-1-({2-[(RS)-2-oxo-3-(3-oxo-3,4-dihydro-2H-pyrido[3,2-b][1,4]oxazin-6-yl)-oxazolidin-5-yl]-ethylamino}-methyl)-1,2-dihydro-pyrrolo[3,2,1-ij]quinolin-4-one]
  MIC: ≤ 0.031 µg/mL

## O=C1CSc2ccc(N3C[C@H](CCN(CCO)CC4Cn5c(=O)ccc6ccc(F)c4c65)OC3=O)cc2N1 (mixture of isomers) [Example 91, (RS)-9-fluoro-1-[((2-hydroxy-ethyl)-{2-[(S)-2-oxo-3-(3-oxo-3,4-dihydro-2H-benzo[1,4]thiazin-6-yl)-oxazolidin-5-yl]-ethyl}-amino)-methyl]-1,2-dihydro-pyrrolo[3,2,1-ij]quinolin-4-one]
  MIC: ≤ 0.031 µg/mL

## O=C1CSc2ccc(N3C[C@H](CCNC[C@H]4Cn5c(=O)ccc6nccc4c65)OC3=O)cc2N1 [Example 77, (S)-4-({2-[(S)-2-oxo-3-(3-oxo-3,4-dihydro-2H-benzo[1,4]thiazin-6-yl)-oxazolidin-5-yl]-ethylamino}-methyl)-4,5-dihydro-pyrrolo[3,2,1-de][1,5]naphthyridin-7-one]
  MIC: 0.031 µg/mL (≈ 0.0649 µM)

## O=C1CSc2ccc(N3C[C@@H](CNCCC4Cn5c(=O)ccc6ncc(F)c4c65)OC3=O)cc2N1 (mixture of isomers) [Example 17, (4RS)-3-fluoro-4-(2-{[(R)-2-oxo-3-(3-oxo-3,4-dihydro-2H-benzo[1,4]thiazin-6-yl)-oxazolidin-5-ylmethyl]-amino}-ethyl)-4,5-dihydro-pyrrolo[3,2,1-de][1,5]naphthyridin-7-one]
  MIC: ≤ 0.031 µg/mL

## O=C1CSc2ccc(N3C[C@@H](CCCNC4Cn5c(=O)cnc6cccc4c65)OC3=O)nc2N1 (mixture of isomers) [Example 115, (RS)-6-{3-[(R)-2-oxo-3-(3-oxo-3,4-dihydro-2H-pyrido[3,2-b][1,4]thiazin-6-yl)-oxazolidin-5-yl]-propylamino}-5,6-dihydro-pyrrolo[1,2,3-de]quinoxalin-3-one]
  MIC: ≤ 0.031 µg/mL

## O=C1CSc2ccc(N3C[C@@H](CCCN(CCCO)C4Cn5c(=O)ccc6ccc(F)c4c65)OC3=O)cc2N1 (mixture of isomers) [Example 92, (RS)-9-fluoro-1-((3-hydroxy-propyl)-{3-[(R)-2-oxo-3-(3-oxo-3,4-dihydro-2H-benzo[1,4]thiazin-6-yl)-oxazolidin-5-yl]-propyl}-amino)-1,2-dihydro-pyrrolo[3,2,1-ij]quinolin-4-one]
  MIC: ≤ 0.031 µg/mL

## COC(=O)[C@H]1[C@H](NCCC[C@@H]2CN(c3ccc4c(c3)NC(=O)CS4)C(=O)O2)c2c(F)ccc3ccc(=O)n1c23 (relative stereo) [Example 181, (1R*,2R*)-9-fluoro-4-oxo-1-{3-[(R)-2-oxo-3-(3-oxo-3,4-dihydro-2H-benzo[1,4]thiazin-6-yl)-oxazolidin-5-yl]-propylamino}-1,2-dihydro-4H-pyrrolo[3,2,1-ij]quinoline-2-carboxylic acid methyl ester]
  MIC: ≤ 0.031 µg/mL

## O=C1CSc2ccc(N3C[C@@H](CCCNC4Cn5c(=O)ccc6ccc(Cl)c4c65)OC3=O)cc2N1 (mixture of isomers) [Example 178, (RS)-9-chloro-1-{3-[(R)-2-oxo-3-(3-oxo-3,4-dihydro-2H-benzo[1,4]thiazin-6-yl)-oxazolidin-5-yl]-propylamino}-1,2-dihydro-pyrrolo[3,2,1-ij]quinolin-4-one]
  MIC: ≤ 0.031 µg/mL

## O=C1CSc2ccc(N3C[C@H](CNCCC4Cn5c(=O)ccc6ccc(F)c4c65)OC3=O)cc2N1 (mixture of isomers) [Example 8, (1RS)-9-fluoro-1-(2-{[(S)-2-oxo-3-(3-oxo-3,4-dihydro-2H-benzo[1,4]thiazin-6-yl)-oxazolidin-5-ylmethyl]-amino}-ethyl)-1,2-dihydro-pyrrolo[3,2,1-ij]quinolin-4-one]
  MIC: ≤ 0.031 µg/mL

## O=C1CSc2ccc(N3C[C@@H](CNCC4Cn5c(=O)cnc6cccc4c65)OC3=O)cc2N1 (mixture of isomers) [Example 110, (RS)-6-({[(R)-2-oxo-3-(3-oxo-3,4-dihydro-2H-benzo[1,4]thiazin-6-yl)-oxazolidin-5-ylmethyl]-amino}-methyl)-5,6-dihydro-pyrrolo[1,2,3-de]quinoxalin-3-one]
  MIC: ≤ 0.031 µg/mL

## O=C1CSc2ccc(N3C[C@H](CCCN[C@@H]4Cn5c(=O)ccc6ncc(F)c4c65)OC3=O)cc2N1 [Example 148, (S)-3-fluoro-4-{3-[(S)-2-oxo-3-(3-oxo-3,4-dihydro-2H-benzo[1,4]thiazin-6-yl)-oxazolidin-5-yl]-propylamino}-4,5-dihydro-pyrrolo[3,2,1-de][1,5]naphthyridin-7-one]
  MIC: ≤ 0.031 µg/mL

Source: US9822114B2, “Tricyclic oxazolidinone antibiotic compounds” (Idorsia Pharmaceuticals Ltd, priority 2008, dated 2017)
